This note sets out measurements from patent publication US9688695B2, “Imidazothiadiazole and imidazopyrazine derivatives as protease activated receptor 4 (PAR4) inhibitors for treating platelet aggregation” (BRISTOL-MYERS SQUIBB COMPANY, priority 2012, dated 2017).

For this assay, the target named is PAR4 (Homo sapiens (Human), UniProt Q96RI0). As to the kind of experiment: FLIPR assay in PAR4-expressing HEK293 cells (PAR4 antagonist activity, calcium mobilization). The assay is classed as cell-based. As to conditions: H-Ala-Phe(4-F)-Pro-Gly-Trp-Leu-Val-Lys-Asn-Gly-NH2-induced calcium mobilization. The method, boiled down: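 HEK293 EBNA cells stably expressing human PAR4 (also endogenous PAR1) preincubated 30 min at room temperature with compound in HBSS/10 mM HEPES, 0.67% DMSO final. PAR4 agonist peptide then added and intracellular calcium mobilization monitored by fluorescence.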
Sequence of PAR4 (Q96RI0 18-385): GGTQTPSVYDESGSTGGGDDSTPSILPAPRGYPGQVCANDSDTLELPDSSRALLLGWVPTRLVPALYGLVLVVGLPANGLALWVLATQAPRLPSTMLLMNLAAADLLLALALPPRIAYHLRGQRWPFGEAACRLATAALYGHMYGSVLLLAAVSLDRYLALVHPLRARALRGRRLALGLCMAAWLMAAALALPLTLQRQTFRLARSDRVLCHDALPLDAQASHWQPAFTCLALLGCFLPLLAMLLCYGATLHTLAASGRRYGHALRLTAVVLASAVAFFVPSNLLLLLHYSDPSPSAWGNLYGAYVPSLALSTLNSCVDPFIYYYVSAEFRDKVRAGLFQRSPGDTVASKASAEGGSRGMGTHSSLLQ
(In general: Calcium flux is commonly read through the fluorescence of an indicator in the cells.)
The EC50 is the concentration giving half of the maximal effect. Consider `COc1cc(OCc2csc(-c3ccc(Cl)nc3)n2)c2cc(-c3cn4nc(C)ccc4n3)oc2c1` [Example 233], for which the EC50 was found to be 2.8 nM.

For `COc1cc(OCc2csc(-c3ccc(S(C)(=O)=O)cc3)n2)c2cc(-c3cn4nc(C)ccc4n3)oc2c1` [Example 234], the EC50 came out at 0.66 nM. `COc1cc(OCc2csc(N3CCC(F)(F)CC3)n2)c2cc(-c3cn4nc(C)ccc4n3)oc2c1` [Example 235]: the EC50 stood at 0.44 nM. Turning to `COc1cc(OCc2csc(N3CCN(S(C)(=O)=O)CC3)n2)c2cc(-c3cn4nc(C)ccc4n3)oc2c1` [Example 236], the EC50 is 1.9 nM. In the case of `COc1cc(OCc2csc(N3CCN(S(=O)(=O)c4ccc(C#N)cc4)CC3)n2)c2cc(-c3cn4nc(C)ccc4n3)oc2c1` [Example 237], the EC50 is 3.5 nM.

Regarding `CCc1sc(N2CCOCC2)nc1COc1cc(OC)cc2oc(-c3cn4nc(C)ccc4n3)cc12` [Example 238], the EC50 turned out to be 0.73 nM.

Regarding `COc1cc(OCc2csc(C3CCC(F)(F)CC3)n2)c2cc(-c3cn4nc(C)ccc4n3)oc2c1` [Example 239], the EC50 was 0.58 nM.

For `COc1cc(OCc2csc(C3(c4cccc(Cl)c4)CCOCC3)n2)c2cc(-c3cn4nc(C)ccc4n3)oc2c1` [Example 240], the EC50 came out at 6.9 nM. For the compound `COc1cc(OCc2csc(C3(c4ccc(Cl)cc4)CCOC3)n2)c2cc(-c3cn4nc(C)ccc4n3)oc2c1` (centres unmarked) [Example 241], the EC50 worked out at 1.2 nM. `COc1cc(OCc2csc(C3(c4ccc(C)cc4)CCOCC3)n2)c2cc(-c3cn4nc(C)ccc4n3)oc2c1` [Example 242]: the EC50 turned out to be 0.59 nM. Regarding `COCCN(CCOC)c1nc(COc2cc(OC)cc3oc(-c4cn5nc(C)ccc5n4)cc23)cs1` [Example 246], the EC50 was 1.4 nM. As to `COc1cc(OCc2csc(Nc3cccc(N(C)C)c3)n2)c2cc(-c3cn4nc(C)ccc4n3)oc2c1` [Example 248], the EC50 amounted to 3.1 nM. In the case of `COc1cc(OCc2csc(N(C)CCC#N)n2)c2cc(-c3cn4nc(C)ccc4n3)oc2c1` [Example 250], the EC50 is 3.6 nM. Next, `COCCNc1nc(COc2cc(OC)cc3oc(-c4cn5nc(C)ccc5n4)cc23)cs1` [Example 251]: 11 nM; `COc1cc(OCc2csc(N3CCC(N(C)C)CC3)n2)c2cc(-c3cn4nc(C)ccc4n3)oc2c1` [Example 252]: 871 nM; `COc1cc(OCc2csc(N3CC[C@@H](O)C3)n2)c2cc(-c3cn4nc(C)ccc4n3)oc2c1` [Example 253]: 9.7 nM. The result for `COc1cc(OCc2csc(NC(C)C)n2)c2cc(-c3cn4nc(C)ccc4n3)oc2c1` [Example 255] reads 1.7 nM; that for `COc1cc(OCc2csc(N3CCSCC3)n2)c2cc(-c3cn4nc(C)ccc4n3)oc2c1` [Example 258], 0.81 nM. As for `COc1cc(OCc2csc(N3CCC(C)CC3)n2)c2cc(-c3cn4nc(C)ccc4n3)oc2c1` [Example 259], the EC50 was 0.58 nM. The result for `COc1cc(OCc2csc(Nc3cccc(C#N)c3)n2)c2cc(-c3cn4nc(C)ccc4n3)oc2c1` [Example 260] reads 7 nM; that for `COc1cc(OCc2csc(N3CCN(c4ccccc4)CC3)n2)c2cc(-c3cn4nc(C)ccc4n3)oc2c1` [Example 262], 0.75 nM. Regarding `COc1cc(OCc2csc(N3CCN(c4ccccn4)CC3)n2)c2cc(-c3cn4nc(C)ccc4n3)oc2c1` [Example 263], the EC50 is 1.2 nM. Regarding `COc1cc(OCc2csc(Nc3cccc(C)c3)n2)c2cc(-c3cn4nc(C)ccc4n3)oc2c1` [Example 267], the EC50 was found to be 4.2 nM. With `COc1cc(OCc2csc(NCc3cccc(N(C)C)c3)n2)c2cc(-c3cn4nc(C)ccc4n3)oc2c1` [Example 269], the EC50 worked out at 2.5 nM. On to `COc1cc(OCc2csc(N3CCN(Cc4cccnc4)CC3)n2)c2cc(-c3cn4nc(C)ccc4n3)oc2c1` [Example 270], for which the EC50 worked out at 5.8 nM.

Regarding `CCC1CCN(c2nc(COc3cc(OC)cc4oc(-c5cn6nc(C)ccc6n5)cc34)cs2)CC1` [Example 271], the EC50 worked out at 1.3 nM. With `COc1cc(OCc2csc(N3CCC(F)CC3)n2)c2cc(-c3cn4nc(C)ccc4n3)oc2c1` [Example 272], the EC50 came out at 2 nM. Take `COc1cc(OCc2csc(N3CCOC(C)C3)n2)c2cc(-c3cn4nc(C)ccc4n3)oc2c1` (centres unmarked) [Example 277]: the EC50 turned out to be 1.1 nM. Take `COc1cc(OCc2csc(N3CCC4(CC3)CC4)n2)c2cc(-c3cn4nc(C)ccc4n3)oc2c1` [Example 278]: the EC50 came out at 1.4 nM. With `COc1cc(OCc2csc(N(C)C(C)C)n2)c2cc(-c3cn4nc(C)ccc4n3)oc2c1` [Example 280], the EC50 is 6.2 nM. For `COc1cccc(Nc2nc(COc3cc(OC)cc4oc(-c5cn6nc(C)ccc6n5)cc34)cs2)c1` [Example 283], the EC50 came out at 2.9 nM. For `COc1cc(OCc2csc(N3CCN(c4cccc(Cl)n4)CC3)n2)c2cc(-c3cn4nc(C)ccc4n3)oc2c1` [Example 284], the EC50 came to 1.1 nM. For the compound `COc1cc(OCc2csc(N3CCN(C4CCOCC4)CC3)n2)c2cc(-c3cn4nc(C)ccc4n3)oc2c1` [Example 286], the half-maximal effective concentration (EC50) was 110 nM.

Regarding `CCN(C(=O)c1ccc(-c2nc(COc3cc(OC)cc4oc(-c5cn6nc(OC)sc6n5)cc34)cs2)cc1)C(C)C` [Example 287], the EC50 turned out to be 0.48 nM. Regarding `COc1cc(OCc2csc(-c3ccc(C(=O)N4CCC4)cc3)n2)c2cc(-c3cn4nc(OC)sc4n3)oc2c1` [Example 289], the EC50 is 1.2 nM.

On to `COc1cc(OCc2csc(-c3ccc(C(=O)N4CC(O)C4)cc3)n2)c2cc(-c3cn4nc(OC)sc4n3)oc2c1` [Example 290], for which the EC50 came out at 0.6 nM. `CCN(CCC#N)C(=O)c1ccc(-c2nc(COc3cc(OC)cc4oc(-c5cn6nc(OC)sc6n5)cc34)cs2)cc1` [Example 292]: the EC50 turned out to be 0.27 nM. On to `COc1cc(OCc2csc(-c3ccc(C(=O)NCCO)cc3)n2)c2cc(-c3cn4nc(OC)sc4n3)oc2c1` [Example 293], for which the EC50 was determined as 0.72 nM. Next, `COc1cc(OCc2csc(-c3ccc(C(=O)N4CC(OC)C4)cc3)n2)c2cc(-c3cn4nc(OC)sc4n3)oc2c1` [Example 294]: 0.4 nM; `COc1cc(OCc2csc(-c3ccc(C(=O)NC4COC4)cc3)n2)c2cc(-c3cn4nc(OC)sc4n3)oc2c1` [Example 295]: 92 nM; `C=CCN(C)C(=O)c1ccc(-c2nc(COc3cc(OC)cc4oc(-c5cn6nc(OC)sc6n5)cc34)cs2)cc1` [Example 296]: 2.2 nM. The result for `COc1cc(OCc2csc(-c3ccc(C(=O)N(C)C(C)(C)C)cc3)n2)c2cc(-c3cn4nc(OC)sc4n3)oc2c1` [Example 297] reads 0.52 nM; that for `COc1cc(OCc2csc(-c3ccc(C(=O)N(C)C4COC4)cc3)n2)c2cc(-c3cn4nc(OC)sc4n3)oc2c1` [Example 298], 0.99 nM. In the case of `CCN(C(=O)c1ccc(-c2nc(COc3cc(OC)cc4oc(-c5cn6nc(OC)sc6n5)cc34)cs2)cc1)C1CC1` [Example 299], the EC50 stood at 0.55 nM. Regarding `COc1cc(OCc2csc(-c3ccc(C(=O)N(C)CCO)cc3)n2)c2cc(-c3cn4nc(OC)sc4n3)oc2c1` [Example 300], the EC50 came to 0.42 nM. In the case of `COc1cc(OCc2csc(-c3ccc(C(=O)N4CCC(C)CC4)cc3)n2)c2cc(-c3cn4nc(OC)sc4n3)oc2c1` [Example 302], the EC50 was determined as 0.44 nM. In the case of `COc1cc(OCc2csc(-c3ccc(C(=O)N4CCCCCC4)cc3)n2)c2cc(-c3cn4nc(OC)sc4n3)oc2c1` [Example 303], the EC50 came out at 0.85 nM. As to `COc1cc(OCc2csc(-c3ccc(C(=O)NC(C)C)cc3)n2)c2cc(-c3cn4nc(OC)sc4n3)oc2c1` [Example 304], the EC50 turned out to be 0.88 nM.

`CCNC(=O)c1ccc(-c2nc(COc3cc(OC)cc4oc(-c5cn6nc(OC)sc6n5)cc34)cs2)cc1` [Example 306]: the EC50 is 1.2 nM. Regarding `COc1cc(OCc2csc(-c3ccc(C(=O)NCCN(C)C)cc3)n2)c2cc(-c3cn4nc(OC)sc4n3)oc2c1` [Example 307], the EC50 amounted to 24 nM. On to `CCN(C)C(=O)c1ccc(-c2nc(COc3cc(OC)cc4oc(-c5cn6nc(OC)sc6n5)cc34)cs2)cc1` [Example 308], for which the EC50 came out at 0.64 nM. In the case of `CCCN(CC)C(=O)c1ccc(-c2nc(COc3cc(OC)cc4oc(-c5cn6nc(OC)sc6n5)cc34)cs2)cc1` [Example 309], the EC50 turned out to be 0.54 nM. The result for `COc1cc(OCc2csc(-c3ccc(C(=O)N(C)C(C)C)cc3)n2)c2cc(-c3cn4nc(OC)sc4n3)oc2c1` [Example 310] reads 0.53 nM.

Consider `CCN(CC1CC1)C(=O)c1ccc(-c2nc(COc3cc(OC)cc4oc(-c5cn6nc(OC)sc6n5)cc34)cs2)cc1` [Example 312], for which the EC50 was determined as 0.77 nM.

`CCCN(C(=O)c1ccc(-c2nc(COc3cc(OC)cc4oc(-c5cn6nc(OC)sc6n5)cc34)cs2)cc1)C(C)C1CC1` (centres unmarked) [Example 313]: the EC50 was 0.43 nM.

Turning to `COc1cc(OCc2csc(-c3ccc(C(=O)N(C)CC4CC4)cc3)n2)c2cc(-c3cn4nc(OC)sc4n3)oc2c1` [Example 314], the EC50 turned out to be 0.37 nM. Regarding `COc1cc(OCc2csc(-c3ccc(C(=O)NC4CC4)cc3)n2)c2cc(-c3cn4nc(OC)sc4n3)oc2c1` [Example 315], the EC50 is 1.3 nM. In the case of `COc1cc(OCc2csc(-c3ccc(C(=O)N(C4CC4)C4CC4)cc3)n2)c2cc(-c3cn4nc(OC)sc4n3)oc2c1` [Example 316], the EC50 was determined as 0.95 nM.

Turning to `COc1cc(OCc2csc(-c3ccc(C(=O)N4C(C)CCC4C)cc3)n2)c2cc(-c3cn4nc(OC)sc4n3)oc2c1` (centres unmarked) [Example 317], the EC50 amounted to 1.6 nM.
